Patent publication US9145403B2, “Heterocyclic alkanol derivatives” (Bayer Intellectual Property GmbH, priority 2010, dated 2015)

How the values were obtained:
Leptosphaeria nodorum = Leptosphaeria nodorum test (wheat)/protective; type: in vivo; details: young wheat plants sprayed at 500 ppm, inoculated 1 day after treatment, evaluation 7-9 days after inoculation; 0% = control, 100% = no infection
Description: Leptosphaeria nodorum Test (Wheat)/Protective Solvent: 49 parts by weight of N,N-dimethyformamide Emulsifler: 1 part by weight of alkylaryl polyglycol ether To produce an appropriate active ingredient formulation, 1 part by weight of active ingredient is mixed with the specified amounts of solvent and emulsifler, and the concentrate is diluted with water to the desired concentration. To test for protective activity, young plants are sprayed with the formulation of active ingredient at the stated application rate. One day after the treatment, the plants are inoculated with an aqueous spore suspension of Leptosphaeria nodorum and then remain at 100% relative air humidity and 22° C. for 48 h. The plants are then placed in a greenhouse at 90% relative air humidity and a temperature of 22° C. Evaluation follows 7-9 days after the inoculation. 0% means an efficacy which corresponds to that of the control, whereas an efficacy of 100% means that no infection is observed. In this test, the following inventive compounds, at an active ingredient concentration of 500 ppm, show an efficacy of 70% or more.

Puccinia recondita = experiment: Puccinia test (wheat)/protective; type: in vivo; details: young wheat plants sprayed at 500 ppm, inoculated 1 day after treatment, evaluation 7-9 days after inoculation; 0% = control, 100% = no infection
Description: Puccinia Test (Wheat)/Protective Solvent: 49 parts by weight of N,N-dimethyformamide Emulsifier: 1 part by weight of alkylaryl polyglycol ether To produce an appropriate active ingredient formulation, 1 part by weight of active ingredient is mixed with the specified amounts of solvent and emulsifier, and the concentrate is diluted with water to the desired concentration. To test for protective activity, young plants are sprayed with the formulation of active ingredient at the stated application rate. One day after the treatment, the plants are inoculated with a spore suspension of Puccinia recondita and then left at 100% relative humidity and 22° C. for 48 h. The plants are then left at 80% relative air humidity and a temperature of 20° C. Evaluation follows 7-9 days after the inoculation. 0% means an efficacy which corresponds to that of the control, whereas an efficacy of 100% means that no infection is observed. In this test, the following inventive compounds, at an active ingredient concentration of 500 ppm, show an efficacy of 70% or more.

Sphaerotheca fuliginea = experiment: Sphaerotheca test (cucumber)/protective; type: in vivo; details: young cucumber plants sprayed at 500 ppm, inoculated 1 day after treatment, evaluation 7 days after inoculation; 0% = control, 100% = no infection
Description: Table D: Sphaerotheca Test (Cucumber)/Protective Solvent: 49 parts by weight of N,N-dimethylformamide Emulsifier: 1 part by weight of alkylaryl polyglycol ether To produce an appropriate active ingredient formulation, 1 part by weight of active ingredient is mixed with the specified amounts of solvent and emulsifier, and the concentrate is diluted with water to the desired concentration. To test for protective activity, young cucumber plants are sprayed with the formulation of active ingredient at the stated application rate. 1 day after the treatment, the plants are inoculated with a spore suspension of Sphaerotheca fuliginea. The plants are then placed in a greenhouse at 70% relative air humidity and a temperature of 23° C. Evaluation follows 7 days after the inoculation. 0% means an efficacy which corresponds to that of the control, whereas an efficacy of 100% means that no infection is observed. In this test, the following inventive compounds, at an active ingredient concentration of 500 ppm, show an efficacy of 70% or more.

Alternaria solani = experiment: Alternaria test (tomato)/protective; type: in vivo; details: young tomato plants sprayed at 500 ppm, inoculated 1 day after treatment, evaluation 7 days after inoculation; 0% = control, 100% = no infection
Description: Alternaria Test (Tomato)/Protective Solvent: 49 parts by weight of N,N-dimethyformamide Emulsifier: 1 part by weight of alkylaryl polyglycol ether To produce an appropriate active ingredient formulation, 1 part by weight of active ingredient is mixed with the specified amounts of solvent and emulsifier, and the concentrate is diluted with water to the desired concentration. To test for protective activity, young tomato plants are sprayed with the formulation of active ingredient at the stated application rate. One day after the treatment, the plants are inoculated with a spore suspension of Alternaria solani and are then left at 100% relative humidity and 22° C. for 24 hours. The plants are then left at 96% relative air humidity and a temperature of 20° C. Evaluation follows 7 days after the inoculation. 0% means an efficacy which corresponds to that of the control, whereas an efficacy of 100% means that no infection is observed. In this test, the following inventive compounds, at an active ingredient concentration of 500 ppm, show an efficacy of 70% or more.

[1] = log P by HPLC (EEC Directive 79/831 Annex V.A8), reversed-phase C18; type: physicochemical; details: reversed-phase C18 HPLC column; method [a]: LC-MS, acidic range, pH 2.7, 0.1% aqueous formic acid/acetonitrile, linear gradient 10% to 95% acetonitrile
Description: The log P values were measured in accordance with EEC Directive 79/831 Annex V.A8 by HPLC (High Performance Liquid Chromatography) using reversed-phase columns (C 18) by the following methods: [a] The LC-MS determination in the acidic range is effected at pH 2.7 with 0.1% aqueous formic acid and acetonitrile (contains 0.1% formic acid) as eluents; linear gradient from 10% acetonitrile to 95% acetonitrile.

Compound | Efficacy (%) (Leptosphaeria nodorum) | Efficacy (%) (Puccinia recondita) | Efficacy (%) (Sphaerotheca fuliginea) | Efficacy (%) (Alternaria solani) | chromatographic logP [1]
CC(C)(C)c1ncc(OCC(O)(c2cncs2)C(C)(C)C)cn1 (centres unmarked) [Compound 2] | 95 |  |  |  | 
CC(C)(C)C(O)(COc1ccc(Cl)nc1)c1cncs1 (centres unmarked) [Compound 3] |  | 80 | 80 | 89 | 
CC(C)(C)C(O)(COc1cccnc1)c1cncs1 (centres unmarked) [Compound 4] |  | 80 |  |  | 0.89
CC(C)(C)C(O)(COc1cncnc1)c1cncs1 (centres unmarked) [Compound 6] | 70 |  |  |  | 1.4
